# Assay results reported in patent publication US20190216751A1, “Compositions and Methods for the Treatment and Prevention of Cancer” (California State University Northridge, priority 2017, published 2019).
# Legend:
# MCF10A = assay: Cell proliferation assay (CellTiter 96 AQueous One, MTS); assay type: cell-based, human; details: non-malignant mammary cell line
# Protocol: The CellTiter 96® AQueous One Solution (Promega) was used to perform cell proliferation experiments. Cells were plated at 5e3 cells/mL at 200 μL/well in a 96-well plate and allowed to attach overnight. Cells were then treated with indicated drugs the next day at various concentrations. After 72 hours of drug treatments, 40 μL of AQueous One solution was added to each well. Absorbance readings were measured at 490 nm wavelength at 1.5, 2 and 3 hours (absorbance is directly proportional to the number of living cells).
# [1] = system: ZEB1 expression in MCF10CA1a cells; assay: qPCR ZEB1 mRNA, TGFβ-induced EMT; assay type: cell-based, human; details: GC7 10 μM pre-treatment, TGFβ 2.5 ng/mL 48 hours, fibronectin
# Text: The pathway in which the inventors are interested in targeting eIF5A is in the context of TGFβ-induced EMT and TGFβ is a well-characterized inducer of EMT. […] Phase-contrast images are shown to the right of the western blot to indicate a shift in morphology after treatment with TGFβ. […] Since TGFβ can induce PEAK1 upregulation, while in contrast, hypusinated eIF5A promotes PEAK1 translation, the inventors sought to see if TGFβ alone can upregulate hypusinated eIF5A. Post-translational modifications can occur relatively fast. Therefore short-term treatments of TGFβ on 4T1, 67NR and MCF10CA1a cells were performed initially. Protein lysates were collected after 10, 30 and 120 minutes of treatment and immunoblotted for hypusine, total eIF5A and β-actin (FIG. 4B). […] Relative band intensity is graphed to the right of the western blot in which the ratio between hypusine to total eIF5A is compared first between treated samples to control samples then a ratio is calculated comparing each time point relative to 10 minutes as a starting time point of reference. […] The inventors were also interested in what genes were altered at the transcriptional level when dual treating with TGFβ and GC7 at the same time to block EMT. […]
# [2] = system: E-cadherin in 67NR cell line; assay: Western blot E-cadherin after GC7; assay type: cell-based, mouse; details: increased GC7 concentration, 48 hours; only in 67NR
# Protocol: The inventors sought to determine if the decrease in cell viability is due to the inhibition of post translational modification of eIF5A. To test this, all cell lines were treated with GC7 at 100 μM for 48 hours—which were the time point and concentration at which a decrease in cell viability was seen (FIG. 2B). The inventors then collected, performed a western blot and immunoblotted for hypusine, total eIF5A and β-actin as a loading control (FIG. 3A). […] To test if this effect is dose-dependent, 4T1, 67NR and MCF10CA1a cells were treated with various concentrations of GC7 ranging from 0.1 μM to 100 μM. Protein lysates were then collected after 48 hours of treatment and performed a western blot. […] To validate this in breast cancer cells, the inventors immunoblotted for PEAK1 as well as E-cadherin, hypusine, total eIF5A and β-actin as a loading control (FIG. 3B). […] The inventors next looked at cell viability at lower concentrations of GC7, such as 1 μM and 10 μM, where a decrease in hypusinated eIF5A is still achieved but the decrease in cell viability is not as great in lower concentrations that do still target hypusinated eIF5A (FIG. 3C).
# Cell lines were plated in a 6 well plate at 1e5 cells/mL and left to attach overnight. […] Protein concentrations were determined using Bradford Assay. […] Band intensity graphs were quantified using Fiji software after image thresholding.
structure (smiles),measurement,setting,value
"N=C(N)NCCCCCCCN.O=S(=O)(O)O [GC7, N1-Guanyl-1,7-diaminoheptane]",sensitivity to GC7 treatment,MCF10A,one of the most sensitive
same,TGFβ-induced EMT (ZEB1 mRNA),[1],this EMT was blocked
same,E-cadherin protein expression,[2],decrease in E-cadherin
